# From article PMC3930563, “Mycobacterium tuberculosis Exploits Asparagine to Assimilate Nitrogen and Resist Acid Stress during Infection” (PLoS Pathogens, 2014)
# Target: AnsA (Rv1538c), recombinant AnsA-HIS6 (Mycobacterium tuberculosis, UniProt P9WPX5)
# Sequence (P9WPX5 whole entry): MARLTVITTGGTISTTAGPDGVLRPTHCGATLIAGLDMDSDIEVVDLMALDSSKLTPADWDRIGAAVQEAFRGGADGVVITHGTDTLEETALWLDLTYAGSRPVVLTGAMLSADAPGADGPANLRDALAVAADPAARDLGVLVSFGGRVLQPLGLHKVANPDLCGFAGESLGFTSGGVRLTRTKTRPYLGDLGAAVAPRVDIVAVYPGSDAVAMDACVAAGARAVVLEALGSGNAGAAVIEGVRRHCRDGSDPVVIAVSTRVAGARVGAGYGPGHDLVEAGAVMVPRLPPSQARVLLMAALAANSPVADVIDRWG
smiles,measurement,value
"NC(=O)C[C@H](N)C(=O)O [Asn, asparagine]","coupled glutamate dehydrogenase assay, NADPH disappearance at 340 nm",revealed that AnsA mediates asparagine hydrolysis (Fig. 1E)
